Measurements reported in PubChem BioAssay (NCI).
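Test compounds were applied to cells in 96-well plates for 48 hours at 5 doses. The concentration for 50% growth inhibition is given as GI50. The concentration for full growth arrest is given as TGI.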

Columns and labels:
Assay in all cases: growth of human tumour cells (NCI), 48 h
SNB-78 CNS = test system: SNB-78 CNS
SK-MEL-5 melanoma = test system: SK-MEL-5 melanoma
HL-60(TB) leukemia = test system: HL-60(TB) leukemia
COLO 205 colon = test system: COLO 205 colon
A498 renal = test system: A498 renal
OVCAR-5 ovarian = test system: OVCAR-5 ovarian
KM20L2 colon = test system: KM20L2 colon
HOP-62 NSCLC = test system: HOP-62 NSCLC
UACC-62 melanoma = test system: UACC-62 melanoma
ACHN renal = test system: ACHN renal
RXF 393 renal = test system: RXF 393 renal
MALME-3M melanoma = test system: MALME-3M melanoma
DMS 273 small cell lung = test system: DMS 273 small cell lung
XF 498 CNS = test system: XF 498 CNS
KM12 colon = test system: KM12 colon
UACC-257 melanoma = test system: UACC-257 melanoma
SF-268 CNS = test system: SF-268 CNS
LXFL 529 NSCLC = test system: LXFL 529 NSCLC
EKVX NSCLC = test system: EKVX NSCLC
M19-MEL melanoma = test system: M19-MEL melanoma
M14 melanoma = test system: M14 melanoma
HOP-92 NSCLC = test system: HOP-92 NSCLC
DMS 114 small cell lung = test system: DMS 114 small cell lung
LOX IMVI melanoma = test system: LOX IMVI melanoma
SNB-19 CNS = test system: SNB-19 CNS
DLD-1 colon = test system: DLD-1 colon
K-562 leukemia = test system: K-562 leukemia
SK-MEL-2 melanoma = test system: SK-MEL-2 melanoma
A549 NSCLC = test system: A549 NSCLC
SF-539 CNS = test system: SF-539 CNS
OVCAR-4 ovarian = test system: OVCAR-4 ovarian
NCI-H226 lung = test system: NCI-H226 lung
MOLT-4 leukemia = test system: MOLT-4 leukemia
SW-620 colon = test system: SW-620 colon
SNB-75 CNS = test system: SNB-75 CNS
TK-10 renal = test system: TK-10 renal
HCT-116 colon = test system: HCT-116 colon
NCI-H522 lung = test system: NCI-H522 lung
SN12C renal = test system: SN12C renal
OVCAR-3 ovarian = test system: OVCAR-3 ovarian
786-0 renal = test system: 786-0 renal
U251 CNS = test system: U251 CNS
HOP-18 NSCLC = test system: HOP-18 NSCLC
UO-31 renal = test system: UO-31 renal
HT29 colon = test system: HT29 colon
NCI-H460 lung = test system: NCI-H460 lung
SF-295 CNS = test system: SF-295 CNS
OVCAR-8 ovarian = test system: OVCAR-8 ovarian
SK-MEL-28 melanoma = test system: SK-MEL-28 melanoma
IGROV1 ovarian = test system: IGROV1 ovarian
HCT-15 colon = test system: HCT-15 colon
SK-OV-3 ovarian = test system: SK-OV-3 ovarian
HCC-2998 colon = test system: HCC-2998 colon
NCI-H23 lung = test system: NCI-H23 lung

CCC[CH2][Sn]([CH2]CCC)([O]C(=O)c1cccnc1SC)[O]C(=O)c1cccnc1SC
GI50 (SNB-78 CNS): 0.0893 µM | TGI (SNB-78 CNS): 1.52 µM | GI50 (SK-MEL-5 melanoma): 1.27 µM | TGI (SK-MEL-5 melanoma): 2.56 µM | GI50 (HL-60(TB) leukemia): 0.16 µM | TGI (HL-60(TB) leukemia): 1.05 µM | GI50 (COLO 205 colon): 1.09 µM | TGI (COLO 205 colon): 2.33 µM | GI50 (A498 renal): 0.676 µM | TGI (A498 renal): 1.95 µM | GI50 (OVCAR-5 ovarian): 1.76 µM | TGI (OVCAR-5 ovarian): 3.17 µM | GI50 (KM20L2 colon): 1.7 µM | TGI (KM20L2 colon): 3.51 µM | GI50 (HOP-62 NSCLC): 2.43 µM | TGI (HOP-62 NSCLC): 4.22 µM | GI50 (UACC-62 melanoma): 0.791 µM | TGI (UACC-62 melanoma): 2.04 µM | GI50 (ACHN renal): 0.878 µM | TGI (ACHN renal): 2.09 µM | GI50 (RXF 393 renal): 0.21 µM | TGI (RXF 393 renal): 1.12 µM | GI50 (MALME-3M melanoma): 0.295 µM | TGI (MALME-3M melanoma): 1.49 µM | GI50 (DMS 273 small cell lung): 1.07 µM | TGI (DMS 273 small cell lung): 2.26 µM | GI50 (XF 498 CNS): 1.25 µM | TGI (XF 498 CNS): 2.5 µM | GI50 (KM12 colon): 1.51 µM | TGI (KM12 colon): 3.08 µM | GI50 (UACC-257 melanoma): 0.922 µM | TGI (UACC-257 melanoma): 2.14 µM | GI50 (SF-268 CNS): 0.65 µM | TGI (SF-268 CNS): 2.01 µM | GI50 (LXFL 529 NSCLC): 0.059 µM | TGI (LXFL 529 NSCLC): 0.238 µM | GI50 (EKVX NSCLC): 1.04 µM | TGI (EKVX NSCLC): 2.22 µM | GI50 (M19-MEL melanoma): 0.36 µM | TGI (M19-MEL melanoma): 1.57 µM | GI50 (M14 melanoma): 1.04 µM | TGI (M14 melanoma): 2.29 µM | GI50 (HOP-92 NSCLC): 0.602 µM | TGI (HOP-92 NSCLC): 1.93 µM | GI50 (DMS 114 small cell lung): 0.128 µM | TGI (DMS 114 small cell lung): 0.829 µM | GI50 (LOX IMVI melanoma): 0.302 µM | TGI (LOX IMVI melanoma): 1.37 µM | GI50 (SNB-19 CNS): 1.46 µM | TGI (SNB-19 CNS): 2.78 µM | GI50 (DLD-1 colon): 0.347 µM | TGI (DLD-1 colon): 1.61 µM | GI50 (K-562 leukemia): 0.0482 µM | TGI (K-562 leukemia): 0.372 µM | GI50 (SK-MEL-2 melanoma): 0.311 µM | TGI (SK-MEL-2 melanoma): 1.39 µM | GI50 (A549 NSCLC): 6.7 µM | TGI (A549 NSCLC): 20.6 µM | GI50 (SF-539 CNS): 1.2 µM | TGI (SF-539 CNS): 2.49 µM | GI50 (OVCAR-4 ovarian): 1.62 µM | TGI (OVCAR-4 ovarian): 3.06 µM | GI50 (NCI-H226 lung): 0.883 µM | TGI (NCI-H226 lung): 2.18 µM | GI50 (MOLT-4 leukemia): 0.149 µM | TGI (MOLT-4 leukemia): 0.929 µM | GI50 (SW-620 colon): 0.248 µM | TGI (SW-620 colon): 1.25 µM | GI50 (SNB-75 CNS): 0.673 µM | TGI (SNB-75 CNS): 2.02 µM | GI50 (TK-10 renal): 0.527 µM | TGI (TK-10 renal): 1.69 µM | GI50 (HCT-116 colon): 1.12 µM | TGI (HCT-116 colon): 2.32 µM | GI50 (NCI-H522 lung): 0.0216 µM | TGI (NCI-H522 lung): 0.133 µM | GI50 (SN12C renal): 0.62 µM | TGI (SN12C renal): 1.92 µM | GI50 (OVCAR-3 ovarian): 1.33 µM | TGI (OVCAR-3 ovarian): 2.63 µM | GI50 (786-0 renal): 0.67 µM | TGI (786-0 renal): 1.98 µM | GI50 (U251 CNS): 0.596 µM | TGI (U251 CNS): 1.84 µM | GI50 (HOP-18 NSCLC): 1.48 µM | TGI (HOP-18 NSCLC): 2.8 µM | GI50 (UO-31 renal): 1.36 µM | TGI (UO-31 renal): 2.66 µM | GI50 (HT29 colon): 1.61 µM | TGI (HT29 colon): 3.22 µM | GI50 (NCI-H460 lung): 1.66 µM | TGI (NCI-H460 lung): 3.47 µM | GI50 (SF-295 CNS): 1.38 µM | TGI (SF-295 CNS): 2.67 µM | GI50 (OVCAR-8 ovarian): 1.3 µM | TGI (OVCAR-8 ovarian): 2.78 µM | GI50 (SK-MEL-28 melanoma): 0.722 µM | TGI (SK-MEL-28 melanoma): 2.02 µM | GI50 (IGROV1 ovarian): 1.38 µM | TGI (IGROV1 ovarian): 2.72 µM | GI50 (HCT-15 colon): 1.04 µM | TGI (HCT-15 colon): 2.3 µM | GI50 (SK-OV-3 ovarian): 2.36 µM | TGI (SK-OV-3 ovarian): 5.83 µM | GI50 (HCC-2998 colon): 1.3 µM | TGI (HCC-2998 colon): 2.57 µM | GI50 (NCI-H23 lung): 0.771 µM | TGI (NCI-H23 lung): 2.1 µM
